Measurements taken from patent US7858738B2, “Synthetic human peptides and pharmaceutical compositions comprising them for the treatment of systemic lupus erythematosus” (Yeda Research and Development Co., Ltd., priority 2001, dated 2010).

Experiments:
Format in all cases: cell-based
PBL of SLE patients [1] = test: TGF-β secretion by PBL of SLE patients stimulated with the human 16/6Id mAb (ELISA); conditions: for secretion of TGF-β by PBL: one representative SLE patient, FIG. 9; for Maximum Up-regulation % (TGF-β secretion): percent secretion above that with 16/6Id alone (mean 636 ± 25 pg/ml = 100%); for Up-regulation of TGF-β %: share of 19 SLE patients with up-regulation
Experimental: For this purpose, supernatants were removed from cultures of PBL of various SLE patients following 48 hours incubation with the human 16/6Id mAb in the absence or presence of the peptides hCDR1 or hCDR3. TGF-β was determined by ELISA according to the manufacturer's instructions. Briefly, Maxisorb plates (Nunc) were coated with recombinant human TGFβsRII/Fc chimera (R&D Systems) diluted in PBS (100 ng/ml). After blocking, cell supernatants were added. After 18 hours incubation the detecting biotinylated anti-human TGF-β antibody (R&D Systems) was added. The substrate solution used was the TMB Colour Reagent (Helix Diagnostics) and enzyme activity was evaluated by the MRX ELISA reader using the 570 nm and 630 nm filters.

PBL of SLE patients [2] = test: IL-2 secretion by PBL of SLE patients stimulated with the human 16/6Id mAb (CTLL line); conditions: for patients whose PBL IL-2 secretion was inhibited: 23 responders stimulated by the human 16/6Id; for Maximum inhibition % (IL-2 secretion): PBL of 23 responders; for Maximum inhibition % (IL-2 secretion) / Inhibitory Activity* % (IL-2 secretion): IL-2 secretion with 16/6 Id alone = 100%; for inhibition of the IL-2 secretion by PBL: PBL of one SLE patient, FIG. 8; for Inhibitory Activity* % (IL-2 secretion): share of 23 responders with inhibition of 50% or more
Experimental: It was of interest to find out whether the hCDR peptides are capable of inhibiting IL-2 secretion by PBL of SLE patients following stimulation with the human 16/6Id mAb. […] To this end, PBL of SLE patients were incubated with the human 16/6Id mAb in the absence or presence of the peptides hCDR1 or hCDR3. Supernatants of the cultures were collected following 48 hours of incubation. Assays to determine levels of IL-2 in the supernatants were performed using the CTLL IL-2 dependent line. Briefly, cells of the CTLL line (2×10^4/well) were incubated in the presence of the different supernatants for 24 hours, followed by the addition of ^3H-thymidine for an additional 18-hour incubation period. Cells were then harvested and radioactivity counted using a β-counter. Results were calculated based on recombinant human IL-2 used as a standard. The ability of the peptides to inhibit the IL-2 secretion of PBL of 23 responders stimulated by the human 16/6Id was tested. […] Inhibition of proliferative responses of PBL directly correlated with IL-2 inhibition by the CDR-based peptides.

PBL of SLE patients [3] = test: Proliferative response of PBL of SLE patients to the human 16/6Id mAb; conditions: for inhibition of the proliferative responses of PBL to the human 16/6Id mAb / inhibition of the proliferative responses of PBL to human 16/6Id mAb: PBL of one SLE patient; for inhibition of the proliferative responses of PBL to the human 16/6Id mAb: FIG. 6; for inhibition of the proliferative responses of PBL to human 16/6Id mAb: FIG. 7, reversed murine peptides as controls; for Percent Inhibition of proliferation of PBL: highest positive inhibition, peptide 50 or 100 μg/well; for Percent Inhibition of proliferation of PBL, Mean ± SD: mean over the 19 responder SLE patients (positive inhibitions, above 50%); for responders whose PBL proliferation was inhibited (inhibition above 50% considered positive): of the 19 responder SLE patients tested
Experimental: Induction and treatment of experimental SLE. In order to induce experimental SLE, BALB/c mice were immunized with 1-2 μg of the human mAb 16/6Id and boosted 3 weeks later. For the prevention of experimental SLE, mice were given hCDR1 or hCDR3 (mCDR1 or revmCDR1 as control peptide in Example 12) intravenously (i.v.) or s.c. concomitant with the immunization, and were injected weekly thereafter for 5 weeks. Treatment of an established disease started three and a half months following disease induction with the 16/6Id, when clinical manifestations were already observed. In Example 12, mice received 10 weekly injections (i.v. or s.c.) of mCDR1 or revmCDR1 at a dose of 100 μg/mouse. Prevention and treatment of SLE-like disease in (NZB×NZW)F1 mice with the hCDR1 or mCDR1 peptide. For prevention of SLE, mice at the age of 2 months, before disease manifestations are observed, were injected s.c. with hCDR1 (or mCDR1 in Example 12, 250 μg/mouse) once a week for 10 weeks. To treat an established disease, mice at the age of 5-7 months were injected with hCDR1 (in Example 12, mCDR1 s.c., 250 μg/mouse) once a week for 10 weeks. Proliferative Responses. PBL were isolated from heparinized venous blood by Ficoll-Hypaque (Pharmacia) density-gradient centrifugation. All assays were performed, in triplicate, in flat-bottomed microtiter plates (Falcon, Becton Dickinson, Oxmard, Calif., USA) in which 2×10^5 PBL were cultured in enriched RPMI-1640 as described (Dayan et al., 2000). The PBL were exposed to various concentrations (0.1-40 μg/well) of the human anti-DNA 16/6Id mAb with and without the addition of the various CDR-based peptides at a concentration of at least 10-fold excess over that of the 16/6Id. Phytohemagglutinin (PHA; 2 μg/well) was used as a control for culture conditions at each experiment. The cultures were incubated in 7.5% CO2 at 37° C. for 6 days. Eighteen hours before the cells were harvested, [^3H]-thymidine (0.5μ Ci of 5 Ci/mmol) (Nuclear Research Center, Negev, Israel) was added to all cultures. Results are expressed as the mean thymidine incorporation in counts per minute (CPM) of triplicate culture±SD, or as stimulation index (S.I.; the ratio of mean CPM at the optimal concentration of the human 16/6Id to the mean CPM in the presence of medium alone). A S.I.≧2 was considered a positive response (Dayan et al., 2000). Inhibition (the ratio of mean CPM in the presence of the 16/6Id and various CDR-based peptides to the mean CPM with the 16/6Id without the CDR-based peptide) above 50% was considered positive. Induction of Cytokine Production. Mice that were immunized with the human 16/6Id mAb and either treated or not with the CDR-based peptide, were killed at different periods during or after treatment with the peptide. Splenocytes and lymph node cells (LNC) were harvested and incubated (5×10^6/ml) in the presence of the 16/6Id. Supernatants were collected after 48 and 72 h. Assessment of Cytokines in the Supernatants. Supernatants were collected 48 hours following the initiation of the cultures and stored at −70° C. Measurements of IL-2, IL-10, IFN-γ, and TNF-α were performed by ELISA by using the relevant standards, capture and detecting Abs (Pharmingen) according to the manufacturer's instructions. TGF-β was determined by an ELISA. Briefly, plates were coated with the recombinant human TGF-β1 sRIII/Fc chimera (R & D Systems Inc., Minneapolis, Minn., USA), and the second Ab used was the biotinylated anti-human TGF-β1 antibody (R & D Systems Inc.). The substrate solution used was TMB color Reagent (Helix Diagnostics, West Sacramento, Calif.), and enzyme activity was evaluated by using 570- and 630-nm filters. Detection of SLE-Associated Clinical and Pathological Manifestations. Proteinuria was measured semiquantitatively by using Combistix kit (Ames Division, Bayer Diagnostics, Newbury, U.K.). White blood cells (WBC, for leukopenia) were counted after a 10-fold dilution of heparinized blood in distilled water containing 1% acetic acid (vol/vol). […]

Row | Sequence | secretion of TGF-β by PBL (PBL of SLE patients [1]) | Maximum Up-regulation % (TGF-β secretion) (PBL of SLE patients [1]) [%] | Up-regulation of TGF-β % (PBL of SLE patients [1]) | patients whose PBL IL-2 secretion was inhibited (PBL of SLE patients [2]) | Maximum inhibition % (IL-2 secretion) (PBL of SLE patients [2]) [%] | inhibition of the IL-2 secretion by PBL (PBL of SLE patients [2]) [%] | Inhibitory Activity* % (IL-2 secretion) (PBL of SLE patients [2]) | inhibition of the proliferative responses of PBL to the human 16/6Id mAb (PBL of SLE patients [3]) | inhibition of the proliferative responses of PBL to human 16/6Id mAb (PBL of SLE patients [3]) | Percent Inhibition of proliferation of PBL (PBL of SLE patients [3]; SLE patient 1) [%] | Percent Inhibition of proliferation of PBL (PBL of SLE patients [3]; SLE patient 2 (M. D.)) [%] | Percent Inhibition of proliferation of PBL (PBL of SLE patients [3]; SLE patient 3) [%] | Percent Inhibition of proliferation of PBL (PBL of SLE patients [3]; SLE patient 4) [%] | Percent Inhibition of proliferation of PBL (PBL of SLE patients [3]; SLE patient 5) [%] | Percent Inhibition of proliferation of PBL (PBL of SLE patients [3]; SLE patient 6) [%] | Percent Inhibition of proliferation of PBL (PBL of SLE patients [3]; SLE patient 7) [%] | Percent Inhibition of proliferation of PBL (PBL of SLE patients [3]; SLE patient 8 (S. D.)) [%] | Percent Inhibition of proliferation of PBL (PBL of SLE patients [3]; SLE patient 9) [%] | Percent Inhibition of proliferation of PBL (PBL of SLE patients [3]; SLE patient 10) [%] | Percent Inhibition of proliferation of PBL (PBL of SLE patients [3]; SLE patient 11) [%] | other results
1 | YYCARGLLRGGWNDVDYYGMDV (Human) [hCDR3, peptide based on the CDR3 of the heavy chain of the human 16/6Id mAb] | significant up-regulation | 338 ± 242 | 100 (19/19) % | 19/23 | 78 ± 34 | 100 | 83 (19/23) % | inhibited efficiently | did inhibit efficiently | <50 | 75 | <50 | <50 | 87.5 | 80 | 70.4 | 56 | 65 | 71.8 | 72 | Percent Inhibition of proliferation of PBL (PBL of SLE patients [3]; SLE patient 12): 86%; Percent Inhibition of proliferation of PBL (PBL of SLE patients [3]; SLE patient 13): 64%; Percent Inhibition of proliferation of PBL (PBL of SLE patients [3]; SLE patient 14): 74%; Percent Inhibition of proliferation of PBL (PBL of SLE patients [3]; SLE patient 15): 69%; Percent Inhibition of proliferation of PBL (PBL of SLE patients [3]; SLE patient 16): 68%; Percent Inhibition of proliferation of PBL (PBL of SLE patients [3]; SLE patient 17): 77.8%; Percent Inhibition of proliferation of PBL (PBL of SLE patients [3]; SLE patient 18): <50%; Percent Inhibition of proliferation of PBL (PBL of SLE patients [3]; SLE patient 19): 60.8%; Percent Inhibition of proliferation of PBL, Mean ± SD (PBL of SLE patients [3]): 71.82 ± 8.44%; responders whose PBL proliferation was inhibited (inhibition above 50% considered positive) (PBL of SLE patients [3]): 78.9%
2 | GYYWSWIRQPPGKGEEWIG (Human) [hCDR1, 19-mer peptide based on the CDR1 of the heavy chain of the human 16/6Id mAb] | significant up-regulation | 305 ± 221 | 100 (19/19) % | 21/23 | 84 ± 31 | 100 | 91 (21/23) % | inhibited efficiently | did inhibit efficiently | 62 | 70 | 69 | <50 | 88.5 | 80 | 76 | 58 | 69.5 | 68.2 | <50 | Percent Inhibition of proliferation of PBL (PBL of SLE patients [3]; SLE patient 12): 82%; Percent Inhibition of proliferation of PBL (PBL of SLE patients [3]; SLE patient 13): 63%; Percent Inhibition of proliferation of PBL (PBL of SLE patients [3]; SLE patient 14): 56%; Percent Inhibition of proliferation of PBL (PBL of SLE patients [3]; SLE patient 15): 63%; Percent Inhibition of proliferation of PBL (PBL of SLE patients [3]; SLE patient 16): <50%; Percent Inhibition of proliferation of PBL (PBL of SLE patients [3]; SLE patient 17): 70.5%; Percent Inhibition of proliferation of PBL (PBL of SLE patients [3]; SLE patient 18): 51.5%; Percent Inhibition of proliferation of PBL (PBL of SLE patients [3]; SLE patient 19): 63%; Percent Inhibition of proliferation of PBL, Mean ± SD (PBL of SLE patients [3]): 68.12 ± 9.57%; responders whose PBL proliferation was inhibited (inhibition above 50% considered positive) (PBL of SLE patients [3]): 84.2%
